Laboratory results taken from patent US20230159891A1, “T CELL PROGENITOR PRODUCTION METHOD” (Kyoto University, priority 2020, published 2023).

Tests used:
[1] = system: Hemogenic endothelial cells (HECs) induced from iPS cells; assay: Differentiation culture of iPS-derived hemogenic endothelial cells into CD34+/CD7+ T cell progenitors (Example 1); type: cell-based, human
Protocol: The cell population containing hemogenic endothelial cells (HECs) for use was a floating cell population obtained by differentiating iPS cells (Ff-I01s04: derived from peripheral blood mononuclear cells of a healthy individual) provided from the Center for iPS Cell Research and Application, Kyoto University, according to known methods (e.g., the methods disclosed in Cell Reports 2 (2012) 1722-1735, or WO2017/221975). Specifically, Ff-I01s04 was seeded at 1×10^6 cells/well in an ultra-low-attachment 6-well plate (Day 0). The cells were cultured under hypoxic conditions (5% 02) for 4 days in EB medium (StemPro-34 supplemented with 10 μg/ml human insulin, 5.5 μg/ml human transferrin, 5 ng/ml sodium selenite, 2 mM L-glutamine, […] α-monothioglycerol, and 50 μg/ml ascorbic acid 2-phosphate) supplemented with 50 ng/ml BMP4, 50 ng/ml bFGF, 50 ng/ml VEGF, and 2 μM SB431542 (Day 4). Subsequently, culture was further performed in a medium supplemented with 50 ng/ml bFGF, 50 ng/ml VEGF, and 50 ng/ml SCF for 4 days (Day 8), thereby obtaining a cell population containing HECs. The floating cell population containing HECs were stained with the following antibody set. […] On day 11 after the start of culture, cells were collected with pipetting, and the cell number was measured. […]

[2] = system: Hemogenic endothelial cells (HECs) derived from iPS cells; assay: Importance of SR1 and IL-3 in production of T cell progenitor (Example 3); type: cell-based, human; settings: 12 days culture
Protocol: Hemogenic endothelial cells (HECs) derived from iPS cells prepared in the same manner as in Example 1 were sorted by BD FACSAria® Fusion and re-suspended in a StemSpan SFEM II medium, followed by seeding the cells into a culture vessel (6-well plate) coated with RN and DLL4-Fc (225,000/6 wells). […] Halfway through the culture, on day 4 after the start of culture, 500 μl of the medium described above was added. On day 7 after the start of culture, a half amount of the medium was replaced. On day 12 after the start of culture, cells were collected with pipetting, and the cell number was measured. The cells were stained with the antibodies shown in Table 2 and measured with BD FACSAria™ Fusion.

CD34^+ cells = settings: NPL 5 (Boitano et al.); cited from earlier work

**Q.** What does the source list for `CC(C)n1cnc2c(NCCc3ccc(O)cc3)nc(-c3csc4ccccc34)nc21` [SR1, 4-(2-((2-(benzo[b]thiophen-3-yl)-9-isopropyl-9H-purin-6-yl)amino)ethyl)phenol]?
**A.** cell growth ([1]; 10 days of culture, 1 nM SR1 with SCF, Flt3L, TPO, IL-7, IL-6, IL-3 in StemSpan SFEM II on RetroNectin/DLL4-Fc coated plate): about 150 fold; proportion of cells that were proT (CD34+/CD7+) cells ([1]; same culture as E1, flow cytometry after culture): about 25%; expression level of CD34 ([2]; flow cytometry, control vs -SR1 condition, FIG. 4): plays an important role in maintaining the expression level of CD34; cell proliferation (cell number) when the factor is excluded from the additives ([2]; control: 1 nM SR1, 10 ng/ml IL-3 plus SCF, Flt3L, TPO, IL-7, IL-6, FIG. 3): reduced; expansion of CD34+ cells (CD34^+ cells): promoted expansion
